Reference: patent US4267176A, “Amino or acylamino-substituted pyrimidinyl cephalosporanic acid derivatives and pharmaceutical compositions thereof” (Fujisawa Pharmaceutical Co., Ltd., priority 1977, dated 1981)
Values after ≈ are worked out from the molar mass of the structure shown.

What was measured:
[1] = system: Proteus vulgaris IAM 1025; test: In vitro antibacterial activity, two-fold agar-plate dilution method (MIC), Proteus vulgaris; type: cell-based; conditions: IAM1025, heart infusion agar, 37° C. for 20 hours, approximately 10^6 cells per ml, read-out: MIC (minimal inhibitory concentration)
Protocol: (§1) In vitro antibacterial activity was determined by the two-fold agar-plate dilution method as described below. One loopful of an overnight culture of each test strain in Trypticase-soy broth (approximately 10^6 […] cells per ml.) was streaked on heart infusion agar (HI-agar) containing graded concentrations of antibiotics, and the minimal inhibitory concentration (MIC) was expressed in […] of μg/ml after incubation at 37° C. for 20 hours.

[2] = system: Pseudomonas aeruginosa NCTC-10490; test: In vitro antibacterial activity, two-fold agar-plate dilution method (MIC), Pseudomonas aeruginosa; type: cell-based; conditions: NCTC10490, heart infusion agar, 37° C. for 20 hours, approximately 10^6 cells per ml, read-out: MIC (minimal inhibitory concentration)
Protocol: as §1

MIC [1] [µg/mL]	MIC [2] [µg/mL]	SMILES
< 0.025	< 1.56	CCO/N=C(\C(=O)NC1C(=O)N2C(C(=O)O)=C(CSc3nncs3)CSC12)c1nccc(N)n1 (stereo not drawn) [compound 1, 7-[2-(4-Aminopyrimidin-2-yl)-2-ethoxyiminoacetamido]-3-(1,3,4-thiadiazol-2-ylthiomethyl)-3-cephem-4-carboxylic acid (syn isomer)]
< 0.025	6.25 (≈ 11.7 µM)	C=CCn1nnnc1SCC1=C(C(=O)O)N2C(=O)C(NC(=O)/C(=N\OC)c3nccc(N)n3)C2SC1 (stereo not drawn) [compound 2, 7-[2-(4-Aminopyrimidin-2-yl)-2-methoxyiminoacetamido]-3-[(1-allyl-1H-tetrazol-5-yl)thiomethyl]-3-cephem-4-carboxylic acid (syn isomer)]
0.05 (≈ 0.0935 µM)	< 1.56	C=CCO/N=C(\C(=O)NC1C(=O)N2C(C(=O)O)=C(CSc3nncs3)CSC12)c1nccc(N)n1 (stereo not drawn) [compound 3, 7-[2-Allyloxyimino-2-(4-aminopyrimidin-2-yl)acetamido]-3-(1,3,4-thiadiazol-2-ylthiomethyl)-3-cephem-4-carboxylic acid (syn isomer)]
< 0.025	< 1.56	CCCO/N=C(\C(=O)NC1C(=O)N2C(C(=O)O)=C(CSc3nncs3)CSC12)c1nccc(N)n1 (stereo not drawn) [compound 4, 7-[2-(4-Aminopyrimidin-2-yl)-2-propoxyiminoacetamido]-3-(1,3,4-thiadiazol-2-ylthiomethyl)-3-cephem-4-carboxylic acid (syn isomer)]
0.025 (≈ 0.0405 µM)	< 1.56	Nc1cccc(/C(=N/OCC(F)(F)F)C(=O)NC2C(=O)N3C(C(=O)O)=C(CSc4nnnn4CC(=O)O)CSC23)n1 (stereo not drawn) [compound 5, 7-[2-(6-Aminopyridin-2-yl)-2-(2,2,2-trifluoroethoxyimino)acetamido]-3-[(1-carboxymethyl-1H-tetrazol-5-yl)thiomethyl]-3-cephem-4-carboxylic acid (syn isomer)]
≤ 0.025	≤ 1.56	CO/N=C(\C(=O)NC1C(=O)N2C(C(=O)O)=C(CSc3nnnn3C)CSC12)c1cccc(N)n1 (stereo not drawn) [compound 6, 7-[2-(6-aminopyridin-2-yl)-2-methoxyiminoacetamido]-3-(1-methyl-1H-tetrazol-5-yl)thiomethyl-3-cephem-4-carboxylic acid (syn isomer)]
≤ 0.025	6.25 (≈ 16.6 µM)	CON=C(C(=O)NC1C(=O)N2C(C(=O)O)=CCS[C@H]12)c1cccc(N)n1 (stereo partly shown) [compound 7, 7-[2-(6-aminopyridin-2-yl)-2-methoxyiminoacetamido]-3-cephem-4-carboxylic acid]
0.05 (≈ 0.111 µM)	3.13 (≈ 6.95 µM)	CO/N=C(\C(=O)NC1C(=O)N2C(C(=O)O)=C(COC(N)=O)CSC12)c1cccc(N)n1 (stereo not drawn) [compound 8, 7-[2-(6-aminopyridin-2-yl)-2-methoxyiminoacetamido]-3-carbamoyloxymethyl-3-cephem-4-carboxylic acid (syn isomer)]
≤ 0.025	≤ 1.56	CO/N=C(\C(=O)NC1C(=O)N2C(C(=O)O)=C(COC(C)=O)CSC12)c1cccc(N)n1 (stereo not drawn) [compound 9, 7-[2-(6-aminopyridin-2-yl)-2-methoxyiminoacetamido]cephalosporanic acid (syn isomer)]
0.2 (≈ 0.395 µM)	6.25 (≈ 12.3 µM)	CON=C(C(=O)NC1C(=O)N2C(C(=O)O)=C(CSc3nnnn3C)CS[C@H]12)c1ccnc(N)n1 (stereo partly shown) [compound 10, 7-[2-(2-aminopyrimidin-4-yl)-2-methoxyiminoacetamido]-3-(1-methyl-1H-tetrazol-5-yl)thiomethyl-3-cephem-4-carboxylic acid]
≤ 0.025	< 1.56	CO/N=C(\C(=O)NC1C(=O)N2C(C(=O)O)=C(CSc3nnnn3C)CSC12)c1nccc(N)n1 (stereo not drawn) [compound 11, 7-[2-(4-aminopyrimidin-2-yl)-2-methoxyiminoacetamido]-3-(1-methyl-1H-tetrazol-5-ylthiomethyl)-3-cephem-4-carboxylic acid (syn isomer)]
0.05 (≈ 0.0941 µM)	≤ 1.56	C=CCO/N=C(\C(=O)NC1C(=O)N2C(C(=O)O)=C(CSc3nnnn3C)CSC12)c1cccc(N)n1 (stereo not drawn) [compound 12, 7-[2-allyloxyimino-2-(6-aminopyridin-2-yl)acetamido]-3-(1-methyl-1H-tetrazol-5-ylthiomethyl)-3-cephem-4-carboxylic acid (syn isomer)]
0.05 (≈ 0.0944 µM)	≤ 1.56	C#CCO/N=C(\C(=O)NC1C(=O)N2C(C(=O)O)=C(CSc3nnnn3C)CSC12)c1cccc(N)n1 (stereo not drawn) [compound 13, 7-[2-(6-aminopyridin-2-yl)-2-propargyloxyiminoacetamido]-3-(1-methyl-1H-tetrazol-5-ylthiomethyl)-3-cephem-4-carboxylic acid (syn isomer)]
0.05 (≈ 0.123 µM)	< 1.56	CCO/N=C(\C(=O)NC1C(=O)N2C(C(=O)O)=CC(C)SC12)c1cccc(N)n1 (stereo not drawn) [compound 14, 7-[2-(6-aminopyridin-2-yl)-2-ethoxyiminoacetamido]-2-methyl-3-cephem-4-carboxylic acid (syn isomer)]
